The results in this text go back to patent US20160206631A1, “OXYSTEROLS THAT ACTIVATE LIVER X RECEPTOR SIGNALING AND INHIBIT HEDGEHOG SIGNALING” (THE REGENTS OF THE UNIVERSITY OF CALIFORNIA, priority 2010, published 2016).

Structures are written as SMILES.

For one assay, the system named is Hedgehog signaling. Put plainly: CAPAN-1 conditioned-medium-induced Hh target gene expression (Ptch1, HHIP, Gli1) in C3H10T1/2 cells. The following applies: C3H10T1/2 cells treated with CAPAN-1 CM. It counts as cell-based. The procedure: Next, cells were treated with DMEM containing 5% […] or CAPAN-1 CM in the presence or absence of TO, Oxy16, or Cyc. After 48 hours, RNA was extracted and analyzed by Q-RT-PCR for the expression of Hh target genes Ptch1, HHIP, and Gli1 and normalized to GAPDH expression.
As noted above, Hh signaling appears to play an important role in the initiation and progression of pancreatic cancer (26), and the inhibition of HE signaling using small molecule antagonists inhibits pancreatic cancer cells from growing in vitro and in vivo (50). […] Subsequently, Hh signaling in stromal cells provides a permissive milieu for tumor cells to grow. […] In this Example, we examine this possibility using an in vitro model system in which Hh signaling is induced in C3H10T1/2 embryonic fibroblasts by conditioned-medium (CM) from CAPAN-1 human pancreatic cancer cells.
In order to assess the functional activity of Hh proteins produced by CAPAN-1 cells, we examined the ability of CM to induce Hh target gene expression in C3H10T1/2 embryonic fibroblasts.

Assay [1] deals with LXR. Put plainly: ABCA1 (LXR target gene) expression by Q-RT-PCR in M2-10B4 bone marrow stromal cells. The following applies: for fold induction at 2 µM: M210B4, 48 h, read-out: ABCA1 gene expression, Fold Induction ± SD; for LXR signaling activation: bone marrow stromal cells.
Description: This was measured by the ability of these molecules to induce the expression of LXR-target genes, including ABCA1, in M2-10B4 bone marrow stromal cells (MSC) after 48 hours of treatment (Table 1).
For assay [2], the system named is L3.6p1 human pancreatic cancer cells. Put plainly: Clonogenic growth of L3.6p1 pancreatic cancer cells in methylcellulose. It counts as cell-based. To be noted: 72 hours treatment, colonies counted after 10 days. How it is done: (§1) Following treatment cells were harvested by washing cells twice with phosphate buffered saline (PBS) followed by enzymatically detaching with trypsin/EDTA. Cells were collected then washed twice with PBS. Cells were counted then resuspended in 500 uL of media. The volume of cells required for 2,000 cells from the control group was removed from each group then mixed with methylcellulose (1.2%) containing 30% fetal bovine serum, 1% bovine serum albumin, 10^-4 M 2-mercaptoethanol, and 2 mM L-glutamine. Cells were plated in low-attachment 6 well plates (1 ml/well), each group being plated in triplicate. Following 10 days of incubation, tumor cell colonies consisting of >40 cells were counted using an inverted microscope. Results are presented as the percentage of colonies from each treatment group compared to the control group (Table 2).

A further assay has as its system REH human ALL cells. As to the kind of experiment: Clonogenic growth of REH ALL cells. It counts as cell-based. The procedure:
as §1
A similar experiment to that shown above for pancreatic cancer cells was performed using the human ALL cells, REH (Table 3).

In assay [3] the test system is human primary multiple myeloma cells derived from patients. Put plainly: Clonogenic growth of primary multiple myeloma cells from patients in methylcellulose. It counts as cell-based. To be noted: 1 μM, 96 hours, CD34+ and CD138+ depleted bone marrow mononuclear cells.
For assay [4], the system named is human NCI-H929 multiple myeloma cell line. As to the kind of experiment: Clonogenic growth of NCI-H929 multiple myeloma cells. To be noted: 1 μM, 96 hours, colonies after 10 days (FIG. 6). It counts as cell-based. How it is done: NCI-11929 multiple myeloma cells were treated for 96 hours with control vehicle or 1 μM of each compound as shown. Next, drugs were removed and cells were plated in methylcellulose. Clonogenic growth of colonies determined after 10 days. Data are reported as percentage of colony number normalized to control group.
In order to examine the effect of LXR activation on the clonogenic growth of multiple myeloma cells, the human NCI-H929 multiple myeloma cell line was used.

The test system of assay [5] is NCI-H929 multiple myeloma cancer stem cells. As to the kind of experiment: Percentage of cancer stem cells (CD138 negative, ALDH positive) in NCI-H929 cultures by flow cytometry. It counts as cell-based, human. The following applies: 1 μM, 96 hours (FIGS. 7, 8). The procedure: NCI-H929 multiple myeloma cells were treated for 96 hours with control vehicle or 1 μM of each compound as shown. Next, percentage of CD138negative cells in the same number of starting cells from each group was determined by flow cytometry.
NCI-H929 multiple myeloma cells were treated for 96 hours with control vehicle or 1 μM of each compound as shown. Next, percentage of ALDH+ cells in the same number of starting cells from each group was determined by flow cytometry.

For assay [6], the system named is LXR. As to the kind of experiment: LXR target gene expression by Q-RT-PCR in Saos-2 osteosarcoma cells. It counts as cell-based, human. To be noted: Saos-2 cells (FIG. 2, 72 hours for TO). An excerpt:
Data from a representative experiment are reported as the Data from a representative experiment are reported as the mean of triplicate determinations±SD relative to the expression level of LXRα (p<0.001 for control vs. both concentrations of TO for ABCA1 and SREBP1c mRNA).
Culturing the cells in varying serum (FBS) concentrations from 1% to 10% had no effect on LXRs or LXR target gene expression levels at baseline.

The test system of assay [7] is Saos-2 human osteosarcoma cells. Put plainly: Anchorage-independent clonogenic growth of Saos-2 cells. It counts as cell-based. The following applies: Saos-2; 1 μM, 72 hours, colonies after 10 days (FIG. 4). How it is done: (§2) Next, cells were harvested and examined for clonogenic growth in non-adherent plates after 10 days of culturing. Data from a representative of two separate experiments are reported as the relative number of colonies formed by cells treated with LXR ligands relative to cells treated with control vehicle (% of control).
(§3) We examined whether LXR activation inhibits the clonogenic growth of human osteosarcoma cells using an anchorage-independent cell growth assay. Saos-2 and U2OS cells were seeded in standard tissue culture plates and treated for 72 hours with control vehicle or 1 μM of TO, 22R, or Oxy16. Following treatments with LXR ligands, the drugs were removed and the cells harvested and plated in methylcellulose media in non-adherent plates (Costar) and the cell colonies formed after 10 days were counted.

Assay [8] concerns U2OS human osteosarcoma cells. Put plainly: Anchorage-independent clonogenic growth of U2OS cells. It counts as cell-based. To be noted: 1 μM, 72 hours, colonies after 10 days (FIG. 4). How it is done:
as §2, §3

The test system of assay [9] is human pancreatic cancer cells. As to the kind of experiment: Clonogenic growth of human pancreatic cancer cells in vitro. It counts as cell-based.
Assay [10] concerns LXR. As to the kind of experiment: LXR target gene expression in human pancreatic cancer cells.

`CC(C)CC[C@H](O)[C@@H](C)[C@H]1CC[C@H]2[C@@H]3CC=C4C[C@@H](O)CC[C@]4(C)[C@H]3CC[C@]12C` [22(S)-hydroxycholesterol]: in the assay on Hedgehog signaling, the “CM-induced Hh signaling” value was “did not have similar inhibitory effects”.
`C[C@]12CC[C@H]3[C@@H](CC=C4C[C@@H](O)CC[C@@]43C)[C@@H]1CC[C@@H]2[C@@](C)(O)CCCc1ccccc1` [Oxy22]: in the assay on LXR [1], the fold induction at 2 µM worked out at 2.2 ± 0.4 and the LXR signaling activation entry is reported as “Activate LXR Signaling”.
As for `CC(C)CCC[C@](C)(O)C1CCC2C3CC=C4CC(=O)CC[C@]4(C)C3CC[C@@]21C` (stereo partly drawn) [Oxy30, (10R,13S)-17-((S)-2-Hydroxy-6-methylheptan-2-yl)-10,13-dimethyl-4,7,8,9,10,11,12, 13,14,15,16,17-dodecahydro-1H-cyclopenta[a]phenanthren-3(2H)-one], in assay [2] (5 μM), the “Normalized Colony # (% of control)” value is 39 % of control and the “Raw Colony #” value is recorded as 96. In assay [2] (10 μM), the “Normalized Colony # (% of control)” value is given as 41 % of control and the “Raw Colony #” value amounted to 100. Further, in the assay on LXR [1], the fold induction at 2 µM turned out to be 2.8 ± 0.8 and the LXR signaling activation entry is “Activate LXR Signaling”.
With `CC(C)CCC[C@](C)(O)C1CCC2C3CCC4=CC(=O)CC[C@]4(C)C3CC[C@@]21C` (stereo partly drawn) [Oxy31, (10R,13S)-17-((S)-2-Hydroxy-6-methylheptan-2-yl)-10,13-dimethyl-6,7,8,9,10,11,12, 13,14,15,16,17-dodecahydro-1H-cyclopenta[a]phenanthren-3(2H)-one], in the assay with LXR [1], the fold induction at 2 µM is 2 ± 0.3 and the LXR signaling activation result is recorded as “Activate LXR Signaling”.
In the case of `CC(C)CCC[C@](C)(O)C1CCC2C3CC=C4C[C@H](O)CC[C@]4(C)C3CC[C@@]21C` (stereo partly drawn) [Oxy35, (3R,10R,13S)-17-((S)-2-Hydroxy-6-methylheptan-2-yl)-10,13-dimethyl-2,3,4,7,8,9, 10,11,12,13,14,15,16,17-tetradecahydro-1H-cyclopenta[a]phenanthren-3-ol], in the assay with LXR [1], the fold induction at 2 µM was determined as 4 ± 1.2 and the LXR signaling activation entry was “Activate LXR Signaling”.
As for `CC(C)CCC[C@](C)(O)C1CCC2C3CC=C4C=CCC[C@]4(C)C3CC[C@@]21C` (stereo partly drawn) [Oxy37, (2S)-2-((10R,13S)-10,13-Dimethyl-2,7,8,9,10,11,12,13,14,15,16,17-dodecahydro-1H-cyclopenta[a]phenanthren-17-yl)-6-methylheptan-2-ol], in the assay on LXR [1], the fold induction at 2 µM came out at 2 ± 0.1 and the LXR signaling activation entry is “Activate LXR Signaling”.
In the same order, the values of `C[C@]12CC[C@H]3[C@@H](CC=C4C[C@@H](O)CC[C@@]43C)[C@@H]1CC[C@@H]2[C@@](C)(O)CCc1cccnc1` [Oxy43, (3S,8S,9S,10R,13S,14S,17S)-17-((S)-2-Hydroxy-4-(yridine-3-yl)butan-2-yl)-10,13-dimethyl-2,3,4,7,8,940,11,12,13,14,15,16,17-tetradecahydro-1H-cyclopenta-[a]-phenanthren-3-ol] are 2.5 ± 0.8 and “Activate LXR Signaling”.
`C[C@]12CC[C@H]3[C@@H](CC=C4C[C@@H](O)CC[C@@]43C)[C@@H]1CC[C@@H]2[C@@](C)(O)CCc1ccc(F)cc1` [Oxy45, (3S,8S,9S,10R,13S,14S,17S)-17-((S)-4-(4-Fluorophenyl)-2-hydroxybutan-2-yl)-10,13-dimethyl-2,3,4,7,8,9,10,11,12,13,14,15,16,17-tetradecahydro-1H-cyclopenta-M-phenanthren-3-ol]: in the assay on REH human ALL cells (0.1 μM), the “Normalized Colony # (% of control)” value was 43 % of control and the “Raw Colony #” value was 40. Moreover, in the assay with REH human ALL cells (0.5 μM), the “Normalized Colony # (% of control)” value is on record as 0.5 % of control and the “Raw Colony #” value is on record as 0.5. Further, the “colony formation (% of control)” value in [3] (Specimen # 1) is reported as 46 % of control. Further, in assay [3] (Specimen # 2), the “colony formation (% of control)” value is 25 % of control. Moreover, the clonogenic growth entry in assay [4] was “inhibited clonogenic growth”. Besides, the “percentage of cancer stem cells (CD138 negative and ALDH positive cells)” value in [5] is “significantly reduced”. Besides, in the assay on LXR [1], the fold induction at 2 µM worked out at 3.5 ± 0.5 and the LXR signaling activation result is reported as “Activate LXR Signaling”.
As for `C[C@]12CC[C@H]3[C@@H](CC=C4C[C@@H](O)CC[C@@]43C)[C@@H]1CC[C@@H]2[C@@](C)(O)CCc1ccc(Cl)cc1` [Oxy47, (3S,8S,9S,10R,13S,14S,17S)-17-((S)-4-(4-Chlorophenyl)-2-hydroxybutan-2-yl)-10,13-dimethyl-2,3,4,7,8,9,10,11,12,13,14,15,16,17-tetradecahydro-1H-cyclopenta-[a]-phenanthren-3-ol], in the assay with LXR [1], the fold induction at 2 µM turned out to be 1.8 ± 0.5 and the LXR signaling activation entry is given as “Activate LXR Signaling”.
For `CC(C)CCC[C@](C)(O)[C@H]1CC[C@H]2[C@@H]3CC=C4C[C@@H](O)CC[C@]4(C)[C@H]3CC[C@@]21C` [Oxy 20S, 20(S)-hydroxycholesterol, reference compound], in the assay with LXR [6], the “expression of LXR target genes ABCA1 and SREBP1c” value was “significant expression”.
In the case of `CC(C)CC[C@@H](O)[C@@H](C)[C@H]1CC[C@H]2[C@@H]3CC=C4C[C@@H](O)CC[C@]4(C)[C@H]3CC[C@]12C` [Oxy 22R, 22R-hydroxycholesterol, reference compound], the “Normalized Colony # (% of control)” value in [2] (5 μM) is 63 % of control; in [2] (10 μM), 59 % of control; in the assay on REH human ALL cells (0.1 μM) it was 36 % of control; in the assay on REH human ALL cells (0.5 μM), 2 % of control. In addition, the “Raw Colony #” value in assay [2] (5 μM) amounted to 153; in assay [2] (10 μM) it was 142; with REH human ALL cells (0.1 μM), 33; with REH human ALL cells (0.5 μM), 2. Besides, in the assay with LXR [6], the “expression of LXR target genes ABCA1 and SREBP1c” value was “significant expression”. For the same compound, the clonogenic growth result in assay [7] is “significant inhibition”; in assay [8] it was “significant inhibition”; in assay [9], “significantly inhibit”. For the same compound, the “CM-induced Hh signaling” value in the assay on Hedgehog signaling is “inhibited”. Also, the “expression of LXR target genes” value in the assay with LXR [10] is on record as “induce the expression of LXR target genes”.
